# Measurements taken from patent US10112941B2, “Tricyclic compounds as anticancer agents” (BRISTOL-MYERS SQUIBB COMPANY, priority 2013, dated 2018).
# Molecular target: BRD4 (Homo sapiens, UniProt O60885)
# Assay: Time Resolved Fluorescence Resonance Energy Transfer (TR-FRET) binding assay, BRD4
# Details: one of the FRET assays described; read-out: FRET BRD4 IC50
row,SMILES,IC50
1,"[2H]C([2H])([2H])c1nnn(C)c1-c1cnc2c3ccc(C(C)(C)O)c(F)c3n(C(c3ccc(F)cc3F)C3CCOCC3)c2c1 (centres unmarked) [Example 283, 2-{5-[(2,4-Difluorophenyl)(oxan-4-yl)methyl]-6-fluoro-3-[4-(^2H3)methyl-1-methyl-1H-1,2,3-triazol-5-yl]-5H-pyrido[3,2-b]indol-7-yl}propan-2-ol]",< 5 nM
2,"[2H]C([2H])([2H])c1nnn(C)c1-c1cnc2c3c(OC)cc(S(C)(=O)=O)cc3n(C(c3ncccc3F)C3CCC(F)(F)CC3)c2c1 (single isomer, unassigned) [Example 213, 2-[(4,4-Difluorocyclohexyl)({7-methanesulfonyl-9-methoxy-3-[4-(^2H3)methyl-1-methyl-1H-1,2,3-triazol-5-yl]-5H-pyrido[3,2-b]indol-5-yl})methyl]-3-fluoropyridine]",< 5 nM
3,"Cc1nnn(C)c1-c1cnc2c3ccc(NC(=O)OCCC(F)(F)F)cc3n([C@H](c3ccccc3)C3CCOCC3)c2c1 [Example 364, 3,3,3-Trifluoropropyl N-[3-(dimethyl-1H-1,2,3-triazol-5-yl)-5-[(S)-oxan-4-yl(phenyl)methyl]-5H-pyrido[3,2-b]indol-7-yl]carbamate]",< 5 nM
4,"Cc1nnn(C)c1-c1cnc2c3ccc(C(C)(C)NS(C)(=O)=O)c(F)c3n([C@H](c3ccccc3)C3CCOCC3)c2c1 [Example 463, N-{2-[3-(Dimethyl-1H-1,2,3-triazol-5-yl)-6-fluoro-5-[(S)-oxan-4-yl(phenyl)methyl]-5H-pyrido[3,2-b]indol-7-yl]propan-2-yl}methanesulfonamide]",< 5 nM
5,"[2H]C([2H])([2H])c1nnn(C)c1-c1cnc2c3c(OC)ccc(S(C)(=O)=O)c3n([C@H](c3ccccc3F)C3CCOCC3)c2c1 [Example 189, 5-{5-[(S)-(2-Fluorophenyl)(oxan-4-yl)methyl]-6-methanesulfonyl-9-methoxy-5H-pyrido[3,2-b]indol-3-yl}-4-(^2H3)methyl-1-methyl-1H-1,2,3-triazole]",< 5 nM
6,"Cc1nnn(C)c1-c1cnc2c3ccc(C4(O)CC4)cc3n([C@H](c3ccccc3)C3CCOCC3)c2c1 [Example 419, 1-[3-(Dimethyl-1H-1,2,3-triazol-5-yl)-5-[(S)-oxan-4-yl(phenyl)methyl]-5H-pyrido[3,2-b]indol-7-yl]cyclopropan-1-ol]",< 5 nM
7,"Cc1nnn(C)c1-c1cnc2c3cc(F)c(C(C)(C)O)cc3n(C(c3ccc(F)cc3)C3CCOCC3)c2c1 (single isomer, unassigned) [Example 79, 2-[3-(Dimethyl-1H-1,2,3-triazol-5-yl)-8-fluoro-5-[(4-fluorophenyl)(oxan-4-yl)methyl]-5H-pyrido[3,2-b]indol-7-yl]propan-2-ol]",< 25 nM
8,"Cn1nnc(CO)c1-c1cnc2c3ccc(C(C)(C)O)cc3n([C@H](c3ccccc3)C3CCOCC3)c2c1 [Example 88, (S)-2-(3-(4-(Hydroxymethyl)-1-methyl-1H-1,2,3-triazol-5-yl)-5-(phenyl(tetrahydro-2H-pyran-4-yl)methyl)-5H-pyrido[3,2-b]indol-7-yl)propan-2-ol]",< 5 nM
9,"COc1ccc(S(C)(=O)=O)c2c1c1ncc(-c3c(C)noc3C)cc1n2[C@H](c1ccccc1F)C1CCOCC1 [Example 186, 4-{5-[(S)-(2-Fluorophenyl)(oxan-4-yl)methyl]-6-methanesulfonyl-9-methoxy-5H-pyrido[3,2-b]indol-3-yl}-3,5-dimethyl-1,2-oxazole]",< 5 nM
10,"COc1ccc(C(C2CCOCC2)n2c3cc(C(C)(C)O)ccc3c3ncc(-c4c(C)nnn4C)cc32)cc1 (single isomer, unassigned) [Example 250, 2-[3-(Dimethyl-1H-1,2,3-triazol-5-yl)-5-[(4-methoxyphenyl)(oxan-4-yl)methyl]-5H-pyrido[3,2-b]indol-7-yl]propan-2-ol]",< 25 nM
11,"[2H]C([2H])([2H])c1nnn(C)c1-c1cnc2c3c(OCC(F)F)ccc(S(C)(=O)=O)c3n(C(c3ncccc3F)C3CCOCC3)c2c1 (centres unmarked) [Example 245, 2-{[9-(2,2-Difluoroethoxy)-6-methanesulfonyl-3-[4-(^2H3)methyl-1-methyl-1H-1,2,3-triazol-5-yl]-5H-pyrido[3,2-b]indol-5-yl](oxan-4-yl)methyl}-3-fluoropyridine]",< 5 nM
12,"Cc1nnn(C)c1-c1cnc2c3ccc(C(C)(O)CO)cc3n([C@H](c3ccccc3)C3CCOCC3)c2c1 (stereo partly drawn) [Example 424, 2-[3-(Dimethyl-1H-1,2,3-triazol-5-yl)-5-[(S)-oxan-4-yl(phenyl)methyl]-5H-pyrido[3,2-b]indol-7-yl]propane-1,2-diol]",< 5 nM
13,Cc1nnn(C)c1-c1cnc2c3ccc(C(C)(C)O)cc3n([C@H](c3ccccc3F)C3CCOCC3)c2c1 [Example 64],< 5 nM
14,"Cc1nnn(C)c1-c1cnc2c3ccc(C(C)(C)O)cc3n(Cc3ccccc3)c2c1 [Example 69, 2-[5-Benzyl-3-(dimethyl-1H-1,2,3-triazol-5-yl)-5H-pyrido[3,2-b]indol-7-yl]propan-2-ol]",< 5 nM
15,"COc1ccc(C(C2CCOCC2)n2c3cc(C(C)(C)O)ccc3c3ncc(-c4c(C)nnn4C)cc32)cc1 (single isomer, unassigned) [Example 249, 2-[3-(Dimethyl-1H-1,2,3-triazol-5-yl)-5-[(4-methoxyphenyl)(oxan-4-yl)methyl]-5H-pyrido[3,2-b]indol-7-yl]propan-2-ol]",< 5 nM
16,Cc1noc(C)c1-c1cnc2c3ccc(C(C)(C)O)cc3n(Cc3ccc(F)cc3)c2c1 [Example 48],< 25 nM

row,SMILES,IC50
1,"Cc1noc(C)c1-c1cnc2c3ccc(C(C)(C)O)cc3n(C(c3ccccc3F)C3CCOCC3)c2c1 (single isomer, unassigned) [Example 149, 2-[3-(Dimethyl-1,2-oxazol-4-yl)-5-[(2-fluorophenyl)(oxan-4-yl)methyl]-5H-pyrido[3,2-b]indol-7-yl]propan-2-ol]",< 5 nM
2,"Cc1noc(C)c1-c1cnc2c3ccc(S(C)(=O)=O)cc3n(C(CCC(F)(F)F)c3ccccc3)c2c1 (single isomer, unassigned) [Example 38, 4-[7-Methanesulfonyl-5-(4,4,4-trifluoro-1-phenylbutyl)-5H-pyrido[3,2-b]indol-3-yl]-3,5-dimethyl-1,2-oxazole]",< 25 nM
3,"Cc1nnn(C)c1-c1cnc2c3ccc(C(C)(C)O)cc3n(C(CC3CC3)C3CCOCC3)c2c1 (single isomer, unassigned) [Example 395]",< 5 nM
4,"Cn1nnc(N)c1-c1cnc2c3ccc(C(C)(C)O)cc3n([C@H](c3ccccc3)C3CCOCC3)c2c1 [Example 389, 2-[3-(4-Amino-1-methyl-1H-1,2,3-triazol-5-yl)-5-[(S)-oxan-4-yl(phenyl)methyl]-5H-pyrido[3,2-b]indol-7-yl]propan-2-ol]",< 5 nM
5,"Cc1nnn(C)c1-c1cnc2c3ccc(C(O)(C4CC4)C4CC4)cc3n([C@H](c3ccccc3)C3CCOCC3)c2c1 [Example 408, Dicyclopropyl[3-(dimethyl-1H-1,2,3-triazol-5-yl)-5-[(S)-oxan-4-yl(phenyl)methyl]-5H-pyrido[3,2-b]indol-7-yl]methanol]",< 5 nM
6,Cc1noc(C)c1-c1cnc2c3ccc(C(C)(C)O)cc3n([C@@H](c3ccccc3)C3CC3)c2c1 [Example 12],< 25 nM
7,"Cc1noc(C)c1-c1cnc2c3ccc(C(C)(C)O)cc3n(C(c3cccc(F)c3)C3CCOCC3)c2c1 (single isomer, unassigned) [Example 147, 2-[3-(Dimethyl-1,2-oxazol-4-yl)-5-[(3-fluorophenyl)(oxan-4-yl)methyl]-5H-pyrido[3,2-b]indol-7-yl]propan-2-ol]",< 5 nM
8,Cc1noc(C)c1-c1cnc2c3ccc(C(C)(C)O)cc3n(CC3CCC(F)(F)CC3)c2c1 [Example 49],< 5 nM
9,"Cc1noc(C)c1-c1cnc2c3ccc(C(F)F)cc3n(Cc3ccccc3)c2c1 [Example 50, 4-[5-Benzyl-7-(difluoromethyl)-5H-pyrido[3,2-b]indol-3-yl]-3,5-dimethyl-1,2-oxazole]",< 1500 nM
10,Cc1nnn(C)c1-c1cnc2c3c(S(C)(=O)=O)cccc3n([C@H](c3ccccc3F)C3CCOCC3)c2c1 [Example 269],< 5 nM
11,"CCOc1nnn(C)c1-c1cnc2c3ccc(C(C)(C)O)cc3n([C@H](c3ccccc3)C3CCOCC3)c2c1 [Example 382, 2-[3-(4-Ethoxy-1-methyl-1H-1,2,3-triazol-5-yl)-5-[(S)-oxan-4-yl(phenyl)methyl]-5H-pyrido[3,2-b]indol-7-yl]propan-2-ol]",< 5 nM
12,"Cc1nnn(C)c1-c1cnc2c3ccc(NC(=O)OC(C)C)cc3n([C@H](c3ccccc3)C3CCOCC3)c2c1 [Example 367, Propan-2-yl N-[3-(dimethyl-1H-1,2,3-triazol-5-yl)-5-[(S)-oxan-4-yl(phenyl)methyl]-5H-pyrido[3,2-b]indol-7-yl]carbamate]",< 5 nM
13,"COc1cc(C(C)(C)O)cc2c1c1ncc(-c3c(C)nnn3C)cc1n2C(c1ccccc1F)C1CCOCC1 (single isomer, unassigned) [Example 137, 2-[3-(Dimethyl-1H-1,2,3-triazol-5-yl)-5-[(2-fluorophenyl)(oxan-4-yl)methyl]-9-methoxy-5H-pyrido[3,2-b]indol-7-yl]propan-2-ol]",< 5 nM
14,"[2H]C([2H])([2H])c1nnn(C)c1-c1cnc2c3c(F)cc(S(C)(=O)=O)cc3n(C(c3ccccc3)C3CCC(F)(F)CC3)c2c1 (single isomer, unassigned) [Example 200, 5-{5-[(4,4-Difluorocyclohexyl)(phenyl)methyl]-9-fluoro-7-methanesulfonyl-5H-pyrido[3,2-b]indol-3-yl}-4-(^2H3)methyl-1-methyl-1H-1,2,3-triazole]",< 5 nM
15,"Cc1ncn(C)c1-c1cnc2c3ccc(S(C)(=O)=O)cc3n([C@H](c3ccccc3)C3CCOCC3)c2c1 [Example 454, 5-{7-Methanesulfonyl-5-[(S)-oxan-4-yl(phenyl)methyl]-5H-pyrido[3,2-b]indol-3-yl}-1,4-dimethyl-1H-imidazole]",< 25 nM
16,"Cc1noc(C)c1-c1cnc2c3ccc(C(C)(C)O)cc3n(C(c3ccccc3F)C3CCOCC3)c2c1 (single isomer, unassigned) [Example 150, 2-[3-(Dimethyl-1,2-oxazol-4-yl)-5-[(2-fluorophenyl)(oxan-4-yl)methyl]-5H-pyrido[3,2-b]indol-7-yl]propan-2-ol]",< 5 nM
